{"source": "paper PMC6905855", "about": "“Agonist-specific voltage-dependent gating of lysosomal two-pore Na^+ channels” (eLife, 2019)", "key": {"[1]": {"biological_target": "T1, surface-expressing mutant TPC2 channel (TPC2^LL/AA) in HEK293 cells (Homo sapiens, UniProt Q8NHX9, L11A/L12A)", "T1 construct": "expressed in transfected cells; host or cells: HEK293", "T1 sequence (Q8NHX9 whole entry L11A/L12A)": "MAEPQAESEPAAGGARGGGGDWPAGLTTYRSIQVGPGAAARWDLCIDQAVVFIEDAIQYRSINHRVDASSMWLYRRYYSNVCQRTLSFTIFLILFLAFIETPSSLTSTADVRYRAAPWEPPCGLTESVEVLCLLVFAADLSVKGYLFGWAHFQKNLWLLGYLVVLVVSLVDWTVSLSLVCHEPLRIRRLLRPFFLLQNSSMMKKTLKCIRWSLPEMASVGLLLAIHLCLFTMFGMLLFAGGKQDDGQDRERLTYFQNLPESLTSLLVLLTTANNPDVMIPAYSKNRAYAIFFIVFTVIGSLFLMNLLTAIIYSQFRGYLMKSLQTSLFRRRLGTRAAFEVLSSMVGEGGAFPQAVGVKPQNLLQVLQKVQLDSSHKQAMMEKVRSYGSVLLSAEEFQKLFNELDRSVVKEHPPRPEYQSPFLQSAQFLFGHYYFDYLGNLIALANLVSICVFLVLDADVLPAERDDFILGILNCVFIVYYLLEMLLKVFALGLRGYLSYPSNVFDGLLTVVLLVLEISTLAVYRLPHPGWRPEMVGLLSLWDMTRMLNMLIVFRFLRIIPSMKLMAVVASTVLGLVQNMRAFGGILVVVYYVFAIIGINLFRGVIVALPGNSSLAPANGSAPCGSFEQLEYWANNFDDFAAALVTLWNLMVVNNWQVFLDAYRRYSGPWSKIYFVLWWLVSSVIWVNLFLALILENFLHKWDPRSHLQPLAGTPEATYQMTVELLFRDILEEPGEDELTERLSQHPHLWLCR", "assay": "Whole-cell recordings of ITPC2-LL/AA", "type": "cell-based", "description": "We therefore characterized the responses of TPC2 channels to TCAs in detail using electrophysiological methods. We first performed whole-cell recordings in HEK293 cells that were transfected with surface-expressed TPC2 mutant channels (TPC2-L^11L^12-AA; abbreviated as TPC2^LL/AA hereafter).\n(§1) All TPC1 and TPC2 mutants were generated with a site-directed mutagenesis kit (Qiagen) using EGFP- human TPC1 and TPC2 as the templates. All constructs were confirmed by DNA sequencing.\nCells were transfected with Lipofectamine 2000 (Invitrogen). After culture media were refreshed 18–24 hr post-transfection, cells were used for the electrophysiological assays 24–36 hr post-transfection.\nAll bath solutions were applied via a perfusion system that allowed complete solution exchange within a few seconds. […] Whole-cell currents were digitized at 10 kHz and filtered at 2 kHz."}, "hTPC2": {"biological_target": "T2, hTPC2 (Homo sapiens, UniProt Q8NHX9)", "T2 construct": "expressed in transfected cells; host or cells: Cos1 and HEK293", "assay": "Whole-endolysosome recordings of ITPC2", "type": "biochemical", "conditions": "for Normalized I-TPC2: WT TPC2"}, "hTPC1": {"biological_target": "T3, hTPC1 (Homo sapiens, UniProt Q9ULQ1)", "T3 construct": "expressed in transfected cells; host or cells: Cos1", "assay": "Whole-endolysosome recordings of ITPC1", "type": "biochemical", "method": "It was therefore of interest to explore whether TCAs/LyNa-VAs could also act on TPC1. To investigate this, we used two different voltage paradigms. […] Second, we used a tail current paradigm to measure the amplitude of the peak inward current at −120 mV following prolonged steps to various potentials (Figure 4E).\nFigure 4. […] HP = 0 mV. […] Dotted lines in A indicate where the currents were measured. […] Data are presented as Mean ± S.E.M (n = 3 patches). […] (G) Normalized I-V plots of basal voltage-dependent currents in WT TPC1- and TPC1^R540I-transfected cells. […] Figure 4—source data 1. […] Figure 4—figure supplement 1. […] (A) A voltage protocol that elicited ITPC1 tail currents as shown in Figure 4E (from −140 to 100 mV with a ∆V = 20 mV, 1 s with a 10 s inter-step interval). Arrows indicate where tail currents were measured. (B) A voltage protocol that elicited ITPC1 tail currents as shown in C. […] HP = 0 mV. […] (A) Basal whole-endolysosome ITPC1 (left) or ITPC1-R540I (right) was elicited by voltage steps (−140 to +100 mV with ΔV = 20 mV) in the absence of PI(3,5)P2 in TPC1-transfected Cos1 cells ([She et al., 2019]). Tail currents were elicited at −120 mV. (B) The effects of PI(3,5)P2 (0.3 µM) on ITPC1 (left) and ITPC1-R540I (right) step currents. […] A preconditioning voltage (+80 mV, 0.1 s) was applied before voltage steps starting from −140 to 100 mV (0.5 s, ∆V = 20 mV).\nas §1\nWhole-endolysosome recordings were performed on manually isolated enlarged endolysosomes ([Wang et al., 2012]). In brief, a patch pipette was pressed against a cell and quickly pulled away to slice the cell membrane. Enlarged endolysosomes were released into a dish and identified by monitoring EGFP-TPC1/2 or the mCherry-TPC1/2 fluorescence. After formation of a gigaseal between the patch pipette and the enlarged endolysosome, capacitance transients were compensated. Voltage steps of several hundred mVs with millisecond duration were then applied to break into the vacuolar membrane. The whole-endolysosome configuration was verified by the re-appearance of capacitance transients after break-in.\nData were collected using an Axopatch 200A patch clamp amplifier, Digidata 1440, and pClamp 10.2 software (Axon Instruments). Whole-endolysosome currents were digitized at 10 kHz and filtered at 2 kHz. All experiments were conducted at room temperature (21–23°C), and all recordings were analyzed with pClamp 10.2, and Origin 8.0 (OriginLab, Northampton, MA). The permeability to cations (relative to PNa) was estimated based on following equations ([Lewis, 1979]) and Erev measurement under bi-ionic conditions:(1) PX/PNa=γNa/γX{[Na^+]Luminal/[X^+]Cytoplasmic}{exp([…])} (2) PCa/PNa=γNa/γCa{[Na^+]Cytoplasmic/[4[Ca^2+]Luminal}{exp(ErevF/RT)}{1+exp(ErevF/RT)} where R, T, F, Erev, and γ are, respectively, the gas constant, absolute temperature, Faraday constant, reversal potential, and activity coefficient. The liquid junction potentials were measured and corrected as described ([Neher, 1992])."}}, "note": "Where “and” joins values, the source holds several entries; their conditions need not be identical. Equal entries are not always repeated.", "data": [{"smiles": "CN(C)CCCN1c2ccccc2CCc2ccc(Cl)cc21", "note": "[LyNa-VA1.1, Clomipramine]", "values": [{"measurement": "activation of whole-cell ITPC2-LL/AA (in words)", "setting": "[1]", "result": "activated"}, {"measurement": "current, whole-cell ITPC2-LL/AA", "setting": "[1]", "result": "1835.6 pA and 1904.2 pA and 1632.7 pA and 1290 pA and 1968.1 pA"}, {"measurement": "EC50", "setting": "[1]; whole-cell recordings at −140 mV, TPC2^LL/AA-transfected HEK293 cells, read-out: EC50", "result": "43 ± 2", "unit": "µM"}, {"measurement": "combined effect with PI(3,5)P2 on whole-endolysosome ITPC2 (in words)", "setting": "hTPC2; PI(3,5)P2 50 nM", "result": "synergistic effects"}, {"measurement": "EC50", "setting": "hTPC2; WT +PI(3,5)P2 (50 nM), whole-endolysosome, Figure 3C", "result": "12 ± 7", "unit": "µM"}, {"measurement": "EC50", "setting": "hTPC2; WT -PI(3,5)P2, whole-endolysosome, Figure 3C", "result": "48 ± 16", "unit": "µM"}, {"measurement": "Normalized I-TPC2", "setting": "hTPC2; 1 µM + PI(3,5)P2 50nM, individual patches", "result": "0.3375 and 0.1568 and 0.08956"}, {"measurement": "Normalized I-TPC2", "setting": "hTPC2; 1 µM + PI(3,5)P2 50nM, mean", "result": 0.1946}, {"measurement": "Normalized I-TPC2", "setting": "hTPC2; 3 µM + PI(3,5)P2 50nM, individual patches", "result": "0.35 and 0.3063 and 0.1"}, {"measurement": "Normalized I-TPC2", "setting": "hTPC2; 3 µM + PI(3,5)P2 50nM, mean", "result": 0.2521}, {"measurement": "Normalized I-TPC2", "setting": "hTPC2; 10 µM + PI(3,5)P2 50nM, individual patches", "result": "0.5558 and 0.7252 and 0.2889"}, {"measurement": "Normalized I-TPC2", "setting": "hTPC2; 10 µM + PI(3,5)P2 50nM, mean", "result": 0.5233}, {"measurement": "Normalized I-TPC2", "setting": "hTPC2; 10 µM, no PI(3,5)P2, individual patches", "result": "0.08625 and 0.1427 and 0.1845"}, {"measurement": "Normalized I-TPC2", "setting": "hTPC2; 10 µM, no PI(3,5)P2, mean", "result": 0.1378}, {"measurement": "Normalized I-TPC2", "setting": "hTPC2; 20 µM, no PI(3,5)P2, individual patches", "result": "0.2419 and 0.1804 and 0.1168"}, {"measurement": "Normalized I-TPC2", "setting": "hTPC2; 20 µM, no PI(3,5)P2, mean", "result": 0.1797}, {"measurement": "Normalized I-TPC2", "setting": "hTPC2; 30 µM + PI(3,5)P2 50nM, individual patches", "result": "1 (2×) and 0.3222"}, {"measurement": "Normalized I-TPC2", "setting": "hTPC2; 30 µM + PI(3,5)P2 50nM, mean", "result": 0.7741}, {"measurement": "Normalized I-TPC2", "setting": "hTPC2; 50 µM, no PI(3,5)P2, individual patches", "result": "0.8473 and 0.4535 and 0.5893"}, {"measurement": "Normalized I-TPC2", "setting": "hTPC2; 50 µM, no PI(3,5)P2, mean", "result": 0.63}, {"measurement": "Normalized I-TPC2", "setting": "hTPC2; 100 µM + PI(3,5)P2 50nM, individual patches", "result": "0.7417 and 0.7423 and 1"}, {"measurement": "Normalized I-TPC2", "setting": "hTPC2; 100 µM + PI(3,5)P2 50nM, mean", "result": 0.828}, {"measurement": "Normalized I-TPC2", "setting": "hTPC2; 100 µM, no PI(3,5)P2, individual patches", "result": "1 (2×) and 0.99"}, {"measurement": "Normalized I-TPC2", "setting": "hTPC2; 100 µM, no PI(3,5)P2, mean", "result": 0.9967}, {"measurement": "Normalized I-TPC2", "setting": "hTPC2; 200 µM, no PI(3,5)P2, individual patches", "result": "0.7106 and 0.507 and 0.6545"}, {"measurement": "Normalized I-TPC2", "setting": "hTPC2; 200 µM, no PI(3,5)P2, mean", "result": 0.624}, {"measurement": "EC50", "setting": "hTPC2; WT+pip2 (50 nM), MEAN (Fig. 3D)", "result": 14.6, "unit": "µM"}, {"measurement": "EC50", "setting": "hTPC2; WT+pip2 (50 nM), individual patches (Fig. 3D)", "result": "27 µM and 12.6 µM and 4.3 µM"}, {"measurement": "EC50", "setting": "hTPC2; WT-pip2, MEAN (Fig. 3D)", "result": 45.1, "unit": "µM"}, {"measurement": "EC50", "setting": "hTPC2; WT-pip2, individual patches (Fig. 3D)", "result": "56 µM and 48.4 µM and 30.8 µM"}, {"measurement": "ITPC2", "setting": "hTPC2; whole endolysosome recordings with 100 µM of LyNa-VAs at −120 mV", "result": "945 ± 111", "unit": "pA"}, {"measurement": "effect on whole-endolysosome ITPC1 (in words)", "setting": "hTPC1", "result": "profound suppression of outward currents at potentials positive to Erev (~0 mV), and a substantial enhancement of inward currents negative to Erev"}, {"measurement": "Dose-dependent activation of TPC1 (normalized ITPC1)", "setting": "hTPC1; 3 µM, individual patches", "result": "0.0359 and 0.105 and 0"}, {"measurement": "Dose-dependent activation of TPC1 (normalized ITPC1)", "setting": "hTPC1; 3 µM, mean", "result": 0.04696}, {"measurement": "Dose-dependent activation of TPC1 (normalized ITPC1)", "setting": "hTPC1; 10 µM, individual patches", "result": "0.1722 and 0.1955 and 0.1208"}, {"measurement": "Dose-dependent activation of TPC1 (normalized ITPC1)", "setting": "hTPC1; 10 µM, mean", "result": 0.1629}, {"measurement": "Dose-dependent activation of TPC1 (normalized ITPC1)", "setting": "hTPC1; 30 µM, individual patches", "result": "0.6041 and 0.3178 and 0.3982"}, {"measurement": "Dose-dependent activation of TPC1 (normalized ITPC1)", "setting": "hTPC1; 30 µM, mean", "result": 0.44}, {"measurement": "Dose-dependent activation of TPC1 (normalized ITPC1)", "setting": "hTPC1; 100 µM, individual patches", "result": "1 and 0.7031 and 0.8638"}, {"measurement": "Dose-dependent activation of TPC1 (normalized ITPC1)", "setting": "hTPC1; 100 µM, mean", "result": 0.8556}, {"measurement": "Dose-dependent activation of TPC1 (normalized ITPC1)", "setting": "hTPC1; 300 µM, individual patches", "result": "0.8072 and 1 (2×)"}, {"measurement": "Dose-dependent activation of TPC1 (normalized ITPC1)", "setting": "hTPC1; 300 µM, mean", "result": 0.9357}, {"measurement": "τ of ITPC1 step currents", "setting": "hTPC1; hTPC1, LyNa-VA1.1 (100 µM), Figure 4A", "result": "155 ± 1", "unit": "ms"}, {"measurement": "V1/2 of ITPC1 G-V curve", "setting": "hTPC1; hTPC1, LyNa-VA1.1 (100 µM), Figure 4F", "result": "-30 ± 5", "unit": "mV"}, {"measurement": "τ of ITPC1 tail currents", "setting": "hTPC1; hTPC1, tail currents at −120 mV, LyNa-VA1.1 (100 µM), Figure 4E", "result": "203 ± 2", "unit": "ms"}, {"measurement": "EC50", "setting": "hTPC1; whole-endolysosome, n = 3 patches, read-out: EC50, activation of TPC1", "result": "27 ± 2", "unit": "µM"}]}]}
